Laboratory results reported in paper PMC5596636 (ACS chemical neuroscience, 2016).

Tests used:
[1] = biological target: T1, mMC1R (Mus musculus, UniProt Q01727); assay: cAMP-based β-galactosidase reporter agonist assay in HEK293 cells, mMC1R; conditions: for mMC1R fold difference: potency loss
[2] = biological target: mMC5R (Mus musculus, UniProt P41149); assay: cAMP-based β-galactosidase reporter agonist assay in HEK293 cells, mMC5R; conditions: for mMC5R fold difference: potency loss
[3] = test system: rMC3R; conditions: HEK293 cells expressing the rMC3R; relative to α-MSH; cited from earlier work
[4] = biological target: mMC3R (Mus musculus, UniProt P33033); assay: cAMP-based β-galactosidase reporter agonist assay in HEK293 cells, mMC3R; conditions: for selectivity for the mMC3R over the mMC1R: from agonist EC50 values
Chain of mMC3R (P33033 whole entry): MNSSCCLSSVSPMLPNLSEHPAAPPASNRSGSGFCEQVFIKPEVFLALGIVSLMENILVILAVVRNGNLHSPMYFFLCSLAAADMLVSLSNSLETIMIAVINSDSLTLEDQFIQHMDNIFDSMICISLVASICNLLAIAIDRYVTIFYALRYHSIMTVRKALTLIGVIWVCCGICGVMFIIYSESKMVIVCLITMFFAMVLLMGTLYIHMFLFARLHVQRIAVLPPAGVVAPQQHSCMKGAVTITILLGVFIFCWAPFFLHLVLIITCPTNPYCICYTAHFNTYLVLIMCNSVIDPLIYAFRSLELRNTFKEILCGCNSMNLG

[5] = biological target: mMC4R (Mus musculus, UniProt P56450); assay: cAMP-based β-galactosidase reporter agonist assay in HEK293 cells, mMC4R; conditions: for mMC4R fold difference: potency loss; for selectivity for the mMC4R over the mMC1R: from agonist EC50 values
Chain of mMC4R (P56450 whole entry): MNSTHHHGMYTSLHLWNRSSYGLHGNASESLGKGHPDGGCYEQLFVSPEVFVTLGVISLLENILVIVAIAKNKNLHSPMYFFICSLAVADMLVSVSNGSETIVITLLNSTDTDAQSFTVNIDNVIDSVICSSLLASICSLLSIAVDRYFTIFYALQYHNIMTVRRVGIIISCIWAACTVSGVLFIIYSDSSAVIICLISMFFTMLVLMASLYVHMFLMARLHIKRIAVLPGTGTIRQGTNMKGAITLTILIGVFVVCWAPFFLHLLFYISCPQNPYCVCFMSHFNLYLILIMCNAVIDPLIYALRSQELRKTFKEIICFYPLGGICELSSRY

[6] = biological target: T1, mMC1R; conditions: B16 murine melanoma cells; relative to α-MSH; cited from earlier work
[7] = biological target: T1, mMC1R; conditions: B16 murine melanoma cells; relative to α-MSH; cited from earlier work; remark: listed apart in the source
[8] = test system: hMC4R; conditions: cited from earlier work
[9] = test system: hMC4R; conditions: cited from earlier work; remark: listed apart in the source
[10] = EC50 of substituted peptide divided by EC50 of α-MSH
[11] = EC50 of substituted peptide divided by EC50 of NDP-MSH

Chain of mMC5R (P41149 whole entry): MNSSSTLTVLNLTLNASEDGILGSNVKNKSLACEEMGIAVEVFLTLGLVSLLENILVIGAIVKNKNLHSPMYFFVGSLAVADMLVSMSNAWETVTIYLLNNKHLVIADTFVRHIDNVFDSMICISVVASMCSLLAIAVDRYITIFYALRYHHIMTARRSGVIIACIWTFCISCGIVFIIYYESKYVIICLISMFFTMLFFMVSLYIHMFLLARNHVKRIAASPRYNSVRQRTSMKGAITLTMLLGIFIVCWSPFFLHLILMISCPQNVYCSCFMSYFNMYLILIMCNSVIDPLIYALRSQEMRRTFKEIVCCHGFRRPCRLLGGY
T1 sequence (Q01727 whole entry): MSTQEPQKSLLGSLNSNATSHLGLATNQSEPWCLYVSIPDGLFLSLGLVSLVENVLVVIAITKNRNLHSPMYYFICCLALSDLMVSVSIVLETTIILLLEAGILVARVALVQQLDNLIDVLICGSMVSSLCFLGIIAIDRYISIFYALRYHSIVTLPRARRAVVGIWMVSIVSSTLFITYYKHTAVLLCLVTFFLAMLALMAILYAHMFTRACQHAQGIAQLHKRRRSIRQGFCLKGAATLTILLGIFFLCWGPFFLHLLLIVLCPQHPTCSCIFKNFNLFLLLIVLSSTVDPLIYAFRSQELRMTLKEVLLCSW

Row | SMILES | mMC1R fold difference [1, 10] [fold] | mMC5R fold difference [2, 10] | fold decreased binding affinity at the rMC3R [3] | EC50 [4] [µM] | mMC4R fold difference [5, 10] | fold decreased tyrosinase potency at the mMC1R [6] | fold decreased binding affinity at the mMC1R [7] | selectivity for the mMC5R over the mMC1R ([2]; from agonist EC50 values) [fold] | selectivity for the mMC3R over the mMC1R [4] [fold] | selectivity for the mMC4R over the mMC1R [5] [fold] | mMC1R fold difference [1, 11] | fold decreased agonist potency at the hMC4R relative to NDP-MSH [8] [fold] | mMC5R fold difference [2, 11] | mMC3R fold difference ([4]; EC50 of substituted peptide divided by EC50 of NDP-MSH, potency loss) [fold] | mMC4R fold difference [5, 11] [fold] | EC50 ([1]; mMC1R EC50, bound, Table 2, EC50 higher than 20 μM) [µM] | fold agonist potency loss at the hMC4R relative to NDP-MSH [9] [fold] | selectivity for the mMC5R over the mMC4R ([2]; from agonist EC50 values) [fold] | EC50 ([2]; mMC5R EC50, bound, Table 2, EC50 higher than 20 μM) [µM] | EC50 ([5]; mMC4R EC50, bound, Table 2, EC50 higher than 20 μM) [µM]
1 | CSCC[C@H](NC(=O)[C@H](CO)NC(=O)[C@H](Cc1ccc(O)cc1)NC(=O)[C@H](C)NC(C)=O)C(=O)N[C@@H](CCC(=O)O)C(=O)N[C@@H](Cc1c[nH]cn1)C(=O)N[C@@H](Cc1ccccc1)C(=O)N[C@@H](CCCNC(=N)N)C(=O)N[C@@H](Cc1c[nH]c2ccccc12)C(=O)NCC(=O)N[C@@H](CCCCN)C(=O)N1CCC[C@H]1C(=O)N[C@H](C(N)=O)C(C)C [[Ala^1]α-MSH] | 5 | no differences | did not affect | 0.0174 ± 0.0104 | no differences | did not affect | did not affect | – | – | – | – | – | – | – | – | – | – | – | – | –
2 | CSCC[C@H](NC(=O)[C@H](C)NC(=O)[C@H](Cc1ccc(O)cc1)NC(=O)[C@H](CO)NC(C)=O)C(=O)N[C@@H](CCC(=O)O)C(=O)N[C@@H](Cc1c[nH]cn1)C(=O)N[C@@H](Cc1ccccc1)C(=O)N[C@@H](CCCNC(=N)N)C(=O)N[C@@H](Cc1c[nH]c2ccccc12)C(=O)NCC(=O)N[C@@H](CCCCN)C(=O)N1CCC[C@H]1C(=O)N[C@H](C(N)=O)C(C)C [[Ala^3]α-MSH] | 26 | within experimental error | equipotent | 0.0121 ± 0.00635 | within experimental error | equipotent | equipotent | – | – | – | – | – | – | – | – | – | – | – | – | –
3 | CC(=O)N[C@@H](CO)C(=O)N[C@@H](Cc1ccc(O)cc1)C(=O)N[C@@H](CO)C(=O)N[C@@H](C)C(=O)N[C@@H](CCC(=O)O)C(=O)N[C@@H](Cc1c[nH]cn1)C(=O)N[C@@H](Cc1ccccc1)C(=O)N[C@@H](CCCNC(=N)N)C(=O)N[C@@H](Cc1c[nH]c2ccccc12)C(=O)NCC(=O)N[C@@H](CCCCN)C(=O)N1CCC[C@H]1C(=O)N[C@H](C(N)=O)C(C)C [[Ala^4]α-MSH] | 400 | did not alter potency | 14 fold | 0.0174 ± 0.00612 | 5 fold | 59 fold | 140 fold | 210 | 710 | 100 | – | – | – | – | – | – | – | – | – | –
4 | CCCC[C@H](NC(=O)[C@H](CO)NC(=O)[C@H](Cc1ccc(O)cc1)NC(=O)[C@H](CO)NC(C)=O)C(=O)N[C@@H](C)C(=O)N[C@@H](Cc1c[nH]cn1)C(=O)N[C@H](Cc1ccccc1)C(=O)N[C@@H](CCCNC(=N)N)C(=O)N[C@@H](Cc1c[nH]c2ccccc12)C(=O)NCC(=O)N[C@@H](CCCCN)C(=O)N1CCC[C@H]1C(=O)N[C@H](C(N)=O)C(C)C [[Ala^5]NDP-MSH, Ac-Ser-Tyr-Ser-Nle-Ala-His-DPhe-Arg-Trp-Gly-Lys-Pro-Val-NH2] | – | – | – | 0.00118 ± 0.0004 | – | – | – | – | – | – | no change | 4 | no change | 5 | 4 | – | – | – | – | –
5 | CSCC[C@H](NC(=O)[C@H](CO)NC(=O)[C@H](Cc1ccc(O)cc1)NC(=O)[C@H](CO)NC(C)=O)C(=O)N[C@@H](C)C(=O)N[C@@H](Cc1c[nH]cn1)C(=O)N[C@@H](Cc1ccccc1)C(=O)N[C@@H](CCCNC(=N)N)C(=O)N[C@@H](Cc1c[nH]c2ccccc12)C(=O)NCC(=O)N[C@@H](CCCCN)C(=O)N1CCC[C@H]1C(=O)N[C@H](C(N)=O)C(C)C [[Ala^5]α-MSH] | 1560 | unaltered | equipotent | 0.22 ± 0.055 | 15 fold | equipotent | equipotent | 740 | 220 | 130 | – | – | – | – | – | > 20 | – | – | – | –
6 | CSCC[C@H](NC(=O)[C@H](CO)NC(=O)[C@H](Cc1ccc(O)cc1)NC(=O)[C@H](CO)NC(C)=O)C(=O)N[C@@H](CCC(=O)O)C(=O)N[C@@H](C)C(=O)N[C@@H](Cc1ccccc1)C(=O)N[C@@H](CCCNC(=N)N)C(=O)N[C@@H](Cc1c[nH]c2ccccc12)C(=O)NCC(=O)N[C@@H](CCCCN)C(=O)N1CCC[C@H]1C(=O)N[C@H](C(N)=O)C(C)C [[Ala^6]α-MSH] | 35 | 45 fold | 6 fold | 4.27 ± 1.96 | 110 fold | 6 fold | 83 fold | – | – | – | – | – | – | – | – | – | – | – | – | –
7 | CSCC[C@H](NC(=O)[C@H](CO)NC(=O)[C@H](Cc1ccc(O)cc1)NC(=O)[C@H](CO)NC(C)=O)C(=O)N[C@@H](CCC(=O)O)C(=O)N[C@@H](Cc1c[nH]cn1)C(=O)N[C@@H](C)C(=O)N[C@@H](CCCNC(=N)N)C(=O)N[C@@H](Cc1c[nH]c2ccccc12)C(=O)NCC(=O)N[C@@H](CCCCN)C(=O)N1CCC[C@H]1C(=O)N[C@H](C(N)=O)C(C)C [[Ala^7]α-MSH] | 200 | 210 fold | 91 fold | 1.66 ± 0.825 | 190 fold | 260 fold | 500 fold | – | – | – | – | – | – | – | – | – | – | – | – | –
8 | CCCC[C@H](NC(=O)[C@H](CO)NC(=O)[C@H](Cc1ccc(O)cc1)NC(=O)[C@H](CO)NC(C)=O)C(=O)N[C@@H](CCC(=O)O)C(=O)N[C@@H](Cc1c[nH]cn1)C(=O)N[C@H](Cc1ccccc1)C(=O)N[C@@H](C)C(=O)N[C@@H](Cc1c[nH]c2ccccc12)C(=O)NCC(=O)N[C@@H](CCCCN)C(=O)N1CCC[C@H]1C(=O)N[C@H](C(N)=O)C(C)C [[Ala^8]NDP-MSH, Ac-Ser-Tyr-Ser-Nle-Glu-His-DPhe-Ala-Trp-Gly-Lys-Pro-Val-NH2] | – | – | – | 0.00207 ± 0.00042 | – | – | – | – | – | – | 6 fold | – | did not affect the agonist potency | – | 29 | – | 32 | – | – | –
9 | CSCC[C@H](NC(=O)[C@H](CO)NC(=O)[C@H](Cc1ccc(O)cc1)NC(=O)[C@H](CO)NC(C)=O)C(=O)N[C@@H](CCC(=O)O)C(=O)N[C@@H](Cc1c[nH]cn1)C(=O)N[C@@H](Cc1ccccc1)C(=O)N[C@@H](C)C(=O)N[C@@H](Cc1c[nH]c2ccccc12)C(=O)NCC(=O)N[C@@H](CCCCN)C(=O)N1CCC[C@H]1C(=O)N[C@H](C(N)=O)C(C)C [[Ala^8]α-MSH] | 200 | 5 fold | 200 fold | 0.67 ± 0.215 | 470 fold | 100 fold | 2080 fold | – | – | – | – | – | – | – | – | – | – | 120 | – | –
10 | CSCC[C@H](NC(=O)[C@H](CO)NC(=O)[C@H](Cc1ccc(O)cc1)NC(=O)[C@H](CO)NC(C)=O)C(=O)N[C@@H](CCC(=O)O)C(=O)N[C@@H](Cc1c[nH]cn1)C(=O)N[C@@H](Cc1ccccc1)C(=O)N[C@@H](CCCNC(=N)N)C(=O)N[C@@H](C)C(=O)NCC(=O)N[C@@H](CCCCN)C(=O)N1CCC[C@H]1C(=O)N[C@H](C(N)=O)C(C)C [[Ala^9]α-MSH] | 570 | 1370 fold | 83 fold | 15.7 ± 4.87 | 1500 fold | 120 fold | 2000 fold | – | – | – | – | – | – | – | – | – | – | – | > 20 | > 20
